Assay results reported in PubChem BioAssay (NCI).
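Compound exposure: 48 hours, 5 concentrations, 96-well plates. GI50: concentration for 50% inhibition of growth. Definition used: TGI = concentration required for complete inhibition of growth.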

Columns and labels:
Assay in all cases: inhibition of tumour cell growth, NCI panel, 48 h
CAKI-1 renal = test system: CAKI-1 renal
SR leukemia = test system: SR leukemia
HOP-62 NSCLC = test system: HOP-62 NSCLC
OVCAR-3 ovarian = test system: OVCAR-3 ovarian
LOX IMVI melanoma = test system: LOX IMVI melanoma
NCI-H522 lung = test system: NCI-H522 lung
MOLT-4 leukemia = test system: MOLT-4 leukemia
HCC-2998 colon = test system: HCC-2998 colon
K-562 leukemia = test system: K-562 leukemia
UACC-62 melanoma = test system: UACC-62 melanoma
SK-MEL-28 melanoma = test system: SK-MEL-28 melanoma
HCT-15 colon = test system: HCT-15 colon
UO-31 renal = test system: UO-31 renal
OVCAR-8 ovarian = test system: OVCAR-8 ovarian
EKVX NSCLC = test system: EKVX NSCLC
SF-295 CNS = test system: SF-295 CNS
HS 578T breast = test system: HS 578T breast
786-0 renal = test system: 786-0 renal
NCI-H226 lung = test system: NCI-H226 lung
MCF7 breast = test system: MCF7 breast
COLO 205 colon = test system: COLO 205 colon
BT-549 breast = test system: BT-549 breast
M14 melanoma = test system: M14 melanoma
A498 renal = test system: A498 renal
ACHN renal = test system: ACHN renal
NCI/ADR-RES ovarian = test system: NCI/ADR-RES ovarian
HT29 colon = test system: HT29 colon
IGROV1 ovarian = test system: IGROV1 ovarian
OVCAR-4 ovarian = test system: OVCAR-4 ovarian
SNB-19 CNS = test system: SNB-19 CNS
NCI-H23 lung = test system: NCI-H23 lung
RPMI-8226 leukemia = test system: RPMI-8226 leukemia
NCI-H460 lung = test system: NCI-H460 lung
RXF 393 renal = test system: RXF 393 renal
U251 CNS = test system: U251 CNS
SW-620 colon = test system: SW-620 colon
MALME-3M melanoma = test system: MALME-3M melanoma
SF-268 CNS = test system: SF-268 CNS
MDA-MB-231 breast = test system: MDA-MB-231 breast
SK-MEL-5 melanoma = test system: SK-MEL-5 melanoma
SF-539 CNS = test system: SF-539 CNS
HOP-92 NSCLC = test system: HOP-92 NSCLC
TK-10 renal = test system: TK-10 renal
T-47D breast = test system: T-47D breast
SNB-75 CNS = test system: SNB-75 CNS
DU-145 prostate = test system: DU-145 prostate
HCT-116 colon = test system: HCT-116 colon
A549 NSCLC = test system: A549 NSCLC
HL-60(TB) leukemia = test system: HL-60(TB) leukemia
SK-MEL-2 melanoma = test system: SK-MEL-2 melanoma
CCRF-CEM leukemia = test system: CCRF-CEM leukemia
KM12 colon = test system: KM12 colon
SN12C renal = test system: SN12C renal
MDA-MB-435 = test system: MDA-MB-435
UACC-257 melanoma = test system: UACC-257 melanoma
OVCAR-5 ovarian = test system: OVCAR-5 ovarian
SK-OV-3 ovarian = test system: SK-OV-3 ovarian
PC-3 prostate = test system: PC-3 prostate

Work on Oc1c(CN2CCCC2)cc(COCc2ccc(Br)cc2)c2cccnc12 yielded a GI50 (CAKI-1 renal) of 106 nM, a TGI (CAKI-1 renal) of 2280 nM and a GI50 (SR leukemia) of 365 nM. It also gave a TGI (SR leukemia) of 2230 nM, a GI50 (HOP-62 NSCLC) of 362 nM and a TGI (HOP-62 NSCLC) of 2300 nM. The GI50 (OVCAR-3 ovarian) was 413 nM, the TGI (OVCAR-3 ovarian) was 1870 nM and the GI50 (LOX IMVI melanoma) was 370 nM. For the same molecule, the TGI (LOX IMVI melanoma) was 1540 nM, the GI50 (NCI-H522 lung) was 297 nM and the TGI (NCI-H522 lung) was 1170 nM. For the same molecule, the GI50 (MOLT-4 leukemia) was 495 nM, the TGI (MOLT-4 leukemia) was 2670 nM and the GI50 (HCC-2998 colon) was 901 nM. The TGI (HCC-2998 colon) was 3610 nM, the GI50 (K-562 leukemia) was 397 nM and the TGI (K-562 leukemia) was 10300 nM. The GI50 (UACC-62 melanoma) was 343 nM, the TGI (UACC-62 melanoma) was 1720 nM and the GI50 (SK-MEL-28 melanoma) was 1160 nM. The TGI (SK-MEL-28 melanoma) was 6310 nM, the GI50 (HCT-15 colon) was 47.5 nM and the TGI (HCT-15 colon) was 1720 nM. For the same molecule, the GI50 (UO-31 renal) was 56.9 nM, the TGI (UO-31 renal) was 903 nM and the GI50 (OVCAR-8 ovarian) was 398 nM. It also gave a TGI (OVCAR-8 ovarian) of 1940 nM, a GI50 (EKVX NSCLC) of 723 nM and a TGI (EKVX NSCLC) of 11800 nM. For the same molecule, the GI50 (SF-295 CNS) was 1190 nM, the TGI (SF-295 CNS) was 3980 nM and the GI50 (HS 578T breast) was 2820 nM. For the same molecule, the TGI (HS 578T breast) was 17100 nM, the GI50 (786-0 renal) was 484 nM and the TGI (786-0 renal) was 2590 nM. The GI50 (NCI-H226 lung) was 1050 nM, the TGI (NCI-H226 lung) was 2960 nM and the GI50 (MCF7 breast) was 316 nM. The TGI (MCF7 breast) was 1370 nM, the GI50 (COLO 205 colon) was 4620 nM and the TGI (COLO 205 colon) was 18700 nM. The GI50 (BT-549 breast) was 1810 nM, the TGI (BT-549 breast) was 6490 nM and the GI50 (M14 melanoma) was 360 nM. It also gave a TGI (M14 melanoma) of 1770 nM, a GI50 (A498 renal) of 1620 nM and a TGI (A498 renal) of 5270 nM. The GI50 (ACHN renal) was 241 nM, the TGI (ACHN renal) was 1970 nM and the GI50 (NCI/ADR-RES ovarian) was 70.7 nM. For the same molecule, the TGI (NCI/ADR-RES ovarian) was 1130 nM, the GI50 (HT29 colon) was 3530 nM and the TGI (HT29 colon) was 13200 nM. It also gave a GI50 (IGROV1 ovarian) of 793 nM, a TGI (IGROV1 ovarian) of 5200 nM and a GI50 (OVCAR-4 ovarian) of 508 nM. It also gave a TGI (OVCAR-4 ovarian) of 3020 nM, a GI50 (SNB-19 CNS) of 1020 nM and a TGI (SNB-19 CNS) of 15400 nM. The GI50 (NCI-H23 lung) was 969 nM, the TGI (NCI-H23 lung) was 3330 nM and the GI50 (RPMI-8226 leukemia) was 1120 nM. For the same molecule, the TGI (RPMI-8226 leukemia) was 4020 nM, the GI50 (NCI-H460 lung) was 433 nM and the TGI (NCI-H460 lung) was 2010 nM. It also gave a GI50 (RXF 393 renal) of 1040 nM, a TGI (RXF 393 renal) of 3410 nM and a GI50 (U251 CNS) of 525 nM. It also gave a TGI (U251 CNS) of 2780 nM, a GI50 (SW-620 colon) of 574 nM and a TGI (SW-620 colon) of 7210 nM. For the same molecule, the GI50 (MALME-3M melanoma) was 1440 nM, the TGI (MALME-3M melanoma) was 5180 nM and the GI50 (SF-268 CNS) was 760 nM. It also gave a TGI (SF-268 CNS) of 6280 nM, a GI50 (MDA-MB-231 breast) of 851 nM and a TGI (MDA-MB-231 breast) of 2370 nM. The GI50 (SK-MEL-5 melanoma) was 329 nM, the TGI (SK-MEL-5 melanoma) was 1300 nM and the GI50 (SF-539 CNS) was 1110 nM. It also gave a TGI (SF-539 CNS) of 2850 nM, a GI50 (HOP-92 NSCLC) of 1930 nM and a TGI (HOP-92 NSCLC) of 7560 nM. It also gave a GI50 (TK-10 renal) of 474 nM, a TGI (TK-10 renal) of 10300 nM and a GI50 (T-47D breast) of 501 nM. The TGI (T-47D breast) was 3080 nM, the GI50 (SNB-75 CNS) was 1330 nM and the TGI (SNB-75 CNS) was 11700 nM. For the same molecule, the GI50 (DU-145 prostate) was 868 nM, the TGI (DU-145 prostate) was 11000 nM and the GI50 (HCT-116 colon) was 365 nM. For the same molecule, the TGI (HCT-116 colon) was 3560 nM, the GI50 (A549 NSCLC) was 914 nM and the TGI (A549 NSCLC) was 9890 nM. The GI50 (HL-60(TB) leukemia) was 355 nM, the TGI (HL-60(TB) leukemia) was 1430 nM and the GI50 (SK-MEL-2 melanoma) was 1470 nM. It also gave a TGI (SK-MEL-2 melanoma) of 3970 nM, a GI50 (CCRF-CEM leukemia) of 443 nM and a TGI (CCRF-CEM leukemia) of 2650 nM. It also gave a GI50 (KM12 colon) of 621 nM, a TGI (KM12 colon) of 11300 nM and a GI50 (SN12C renal) of 989 nM. For the same molecule, the TGI (SN12C renal) was 5860 nM, the GI50 (MDA-MB-435) was 1490 nM and the TGI (MDA-MB-435) was 14400 nM. The GI50 (UACC-257 melanoma) was 1340 nM, the TGI (UACC-257 melanoma) was 3020 nM and the GI50 (OVCAR-5 ovarian) was 2870 nM. For the same molecule, the TGI (OVCAR-5 ovarian) was 13600 nM, the GI50 (SK-OV-3 ovarian) was 594 nM and the TGI (SK-OV-3 ovarian) was 2840 nM. It also gave a GI50 (PC-3 prostate) of 1010 nM and a TGI (PC-3 prostate) of 5970 nM.
